Test results reported in the supplement of paper PMC12325586.

Tested on: MIA PaCa-2
Method: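 MIA PaCa-2 Tet-on shOFD1 pancreatic cancer cells (2000 cells/well, 96-well) were treated with Selleck FDA-approved library compounds at 0, 1, 5, 10, 25 and 50 µM, with extra concentrations added where needed, for 72 h at 37 °C. Knockdown wells also received 100 ng/mL doxycycline; control wells received DMSO without doxycycline. Viability was read by CCK-8 absorbance at 450 nm and normalised to DMSO control wells. IC50 was fitted in GraphPad Prism as a 4-parameter logistic with bottom fixed at 0 and top fixed at 1; at least 3 technical replicate wells per condition.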

[1] = OFD1 knockdown: no (no doxycycline)
[2] = OFD1 knockdown: yes (Tet-on shOFD1, 100 ng/mL doxycycline)

IC50 cell viability [1] | IC50 cell viability [2] | Compound
4.02 µM | 3.69 µM | O=C(O)c1ccc2c(c1)nc(Nc1cccc(Cl)c1)c1ccncc12 [S2248]
51.5 µM | 51.9 µM | S=C(NCc1ccc2c(c1)OCO2)N1CCN(c2ncnc3c2oc2ccccc23)CC1 [S1244]
29.5 µM | 27.8 µM | CNC(=O)c1ccc(N2C(=S)N(c3ccc(C#N)c(C(F)(F)F)c3)C(=O)C2(C)C)cc1F [S1250]
22 µM | 20 µM | O=C(Nc1c(Cl)cncc1Cl)c1ccc(OC(F)F)c(OCC2CC2)c1 [S2131]
3.41 µM | 3.2 µM | Cc1c(C(=O)Nc2ccc(N3C[C@@H](C)O[C@@H](C)C3)nc2)cccc1-c1ccc(OC(F)(F)F)cc1 [S2151]
43.1 µM | 46.4 µM | CC(=O)c1c(C)c2cnc(Nc3ccc(N4CCNCC4)cn3)nc2n(C2CCCC2)c1=O [S1116]
6.31 µM | 6.22 µM | Cc1ccc(F)c(NC(=O)Nc2ccc(-c3cccc4[nH]nc(N)c34)cc2)c1 [S1003]
13.9 µM | 14.2 µM | C[C@@H](O[C@H]1OCCN(Cc2n[nH]c(=O)[nH]2)[C@H]1c1ccc(F)cc1)c1cc(C(F)(F)F)cc(C(F)(F)F)c1 [S1189]
6.31 µM | 6.07 µM | COc1cc(Nc2c(C#N)cnc3cc(OCCCN4CCN(C)CC4)c(OC)cc23)c(Cl)cc1Cl [S1014]
70.3 µM | 68.4 µM | N#CC[C@H](C1CCCC1)n1cc(-c2ncnc3[nH]ccc23)cn1 [S1378]
5.87 µM | 5.04 µM | COc1cc2/c(=N/c3ccc(Br)cc3F)nc[nH]c2cc1OCC1CCN(C)CC1 [S1046]
7.48 µM | 8.13 µM | CN1CCN(CCOc2cc(OC3CCOCC3)c3c(Nc4c(Cl)ccc5c4OCO5)ncnc3c2)CC1 [S1006]
0.81 µM | 0.61 µM | Cc1nc(Nc2ncc(C(=O)Nc3c(C)cccc3Cl)s2)cc(N2CCN(CCO)CC2)n1 [S1021]
8.98 µM | 8.74 µM | COc1ncc(-c2ccc3nccc(-c4ccnnc4)c3c2)cc1NS(=O)(=O)c1ccc(F)cc1F [S2658]
6.98 µM | 6.56 µM | Cc1ccc(NC(=O)c2ccc(CN3CCN(C)CC3)cc2)cc1Nc1nccc(-c2cccnc2)n1 [S2475]
2.53 µM | 2.01 µM | COc1cc(OC)c(/C=C/S(=O)(=O)Cc2ccc(OC)c(NCC(=O)O)c2)c(OC)c1 [S1362]
0.47 µM | 0.39 µM | CN(Cc1cnc2nc(N)nc(N)c2n1)c1ccc(C(=O)N[C@@H](CCC(=O)O)C(=O)O)cc1 [S1210]
20.2 µM | 19.2 µM | COc1ccccc1OCC(O)CN1CCN(CC(=O)Nc2c(C)cccc2C)CC1 (stereo unspecified) [S1799]
5.47 µM | 5.05 µM | CCCCc1nc2cc(/C=C/C(=O)NO)ccc2n1CCN(CC)CC [S1515]
0.41 µM | 0.39 µM | Cn1cc(CNCC2CCN(c3ncc(C(=O)NO)cn3)CC2)c2ccccc21 [S1096]
4.96 µM | 4.24 µM | COC(=O)c1ccc2c(C(=Nc3ccc(N(C)C(=O)CN4CCN(C)CC4)cc3)c3ccccc3)c(O)[nH]c2c1 [S1010]
1.66 µM | 1.44 µM | Cn1cnc2c(F)c(Nc3ccc(Br)cc3Cl)c(C(=O)NOCCO)cc21 [S1008]
66.1 µM | 87.7 µM | CN(C)C/C=C/C(=O)Nc1cc2c(Nc3ccc(F)c(Cl)c3)ncnc2cc1O[C@H]1CCOC1 [S1011]
18.9 µM | 17.3 µM | Cc1cn(-c2cc(NC(=O)c3ccc(C)c(Nc4nccc(-c5cccnc5)n4)c3)cc(C(F)(F)F)c2)cn1 [S1033]

Second part, the compound before the results:

Compound | IC50 cell viability [1] | IC50 cell viability [2]
COc1cc([C@@H]2c3cc4c(cc3[C@@H](O[C@@H]3O[C@@H]5CO[C@@H](c6cccs6)O[C@H]5[C@H](O)[C@H]3O)[C@H]3COC(=O)[C@H]23)OCO4)cc(OC)c1O [S1787] | 0.62 µM | 0.59 µM
COc1cccc2c1C(=O)c1c(O)c3c(c(O)c1C2=O)C[C@@](O)(C(=O)CO)C[C@@H]3O[C@H]1C[C@H](N)[C@@H](O)[C@H](C)O1 [S1223] | 0.63 µM | 0.58 µM
Cc1c(N)nc(C(CC(N)=O)NCC(N)C(N)=O)nc1C(=O)NC(C(=O)NC(C)C(O)C(C)C(=O)NC(C(=O)NCCc1nc(-c2nc(C(=O)NCCC[S+](C)C)cs2)cs1)C(C)O)C(O[C@@H]1O[C@@H](CO)[C@@H](O)[C@H](O)[C@@H]1O[C@H]1O[C@H](CO)[C@@H](O)[C@H](OC(N)=O)[C@@H]1O)c1cnc[nH]1 (stereo partly specified) [S1214] | 1.84 µM | 1.69 µM
C[C@]12CCC(=O)C=C1CC[C@@H]1[C@@H]2[C@@H](O)C[C@@]2(C)[C@H]1CC[C@]2(O)C(=O)CO [S1696] | 57.9 µM | 53.4 µM
COCC[n+]1c2c(n(Cc3cnccn3)c1C)C(=O)c1ccccc1C2=O [S1130] | 0.82 µM | 0.92 µM
C[C@@H]1C[C@H]2[C@@H]3CCC4=CC(=O)C=C[C@]4(C)[C@@]3(F)[C@@H](O)C[C@]2(C)[C@@]1(O)C(=O)CO [S1322] | 8.52 µM | 7.75 µM
CN(C)/N=N/c1[nH]cnc1C(N)=O [S1221] | 52.8 µM | 51.9 µM
CCCCCCNC(=O)n1cc(F)c(=O)[nH]c1=O [S1289] | 2.36 µM | 2.4 µM
FC(F)(F)c1ccc(/C=C/c2nc(COc3ccc(CCCCn4ccnn4)cc3)co2)cc1 [S2216] | 41.1 µM | 37.6 µM
Nc1ncn([C@@H]2O[C@H](CO)[C@@H](O)[C@H]2O)c(=O)n1 [S1782] | 12.6 µM | 10.7 µM
COc1cc([C@@H]2c3cc4c(cc3[C@@H](O[C@@H]3O[C@@H]5CO[C@@H](C)O[C@H]5[C@H](O)[C@H]3O)[C@H]3COC(=O)[C@H]23)OCO4)cc(OC)c1O [S1225] | 2.31 µM | 2.03 µM
Nc1ccccc1NC(=O)c1ccc(CNC(=O)OCc2cccnc2)cc1 [S1053] | 11 µM | 11.2 µM
C=CCNC1=C2C[C@@H](C)C[C@H](OC)[C@H](O)[C@@H](C)/C=C(\C)[C@H](OC(N)=O)[C@@H](OC)/C=C\C=C(/C)C(=O)NC(=CC1=O)C2=O [S1141] | 1.07 µM | 0.75 µM
CC(C)(C)Cn1c(N)nc2ccc(-c3[nH]c(C(C)(C)C)nc3-c3ccc(F)cc3)nc21 [S1494] | 4.04 µM | 3.46 µM
Cc1cccc(C)c1NC1=NCCCS1 [S2516] | 15.3 µM | 14.1 µM
O=c1[nH]cc(F)c(=O)[nH]1 [S1209] | 3.34 µM | 2.54 µM
O=C1CN2Cc3c(ccc(Cl)c3Cl)N=C2N1 [S3172] | 8.82 µM | 8.26 µM
CCC1(c2ccc(N)cc2)CCC(=O)NC1=O (stereo unspecified) [S1672] | 23.6 µM | 22.2 µM
O=P1(N(CCCl)CCCl)NCCCO1 (stereo unspecified) [S2057] | 20.3 µM | 18.6 µM
Cn1c(CCCC(=O)O)nc2cc(N(CCCl)CCCl)ccc21 [S1212] | 15.8 µM | 17 µM

Compound | IC50 cell viability [1] | IC50 cell viability [2]
CCN(CC)C(=O)/C(C#N)=C/c1cc(O)c(O)c([N+](=O)[O-])c1 [S3147] | 3.57 µM | 3.44 µM
CCN(CC)C(=S)SSC(=S)N(CC)CC [S1680] | 46.3 µM | 49.8 µM
Nc1ccc(C(=O)O)c(O)c1 [S4073] | 8.25 µM | 7.73 µM
Cc1nc(-c2ccc(OCC(C)C)c(C#N)c2)sc1C(=O)O [S1547] | 12.4 µM | 12.3 µM
C=C1C[C@@H]2[C@H](CC[C@]3(C)C(=O)CC[C@@H]23)[C@@]2(C)C=CC(=O)C=C12 [S1196] | 53.5 µM | 50.2 µM
CC(C)(C)NCC(O)c1ccc(O)c(CO)c1 (stereo unspecified) [S2507] | 4.57 µM | 4.1 µM
CC(C)n1c(/C=C/C(O)CC(O)CC(=O)O)c(-c2ccc(F)cc2)c2ccccc21 (stereo unspecified) [S1909] | 8.13 µM | 7.35 µM
O=c1[nH]c(=O)n(C2CCCO2)cc1F (stereo unspecified) [S1300] | 48.4 µM | 43.1 µM
Cn1cnc([N+](=O)[O-])c1Sc1ncnc2[nH]cnc12 [S1721] | 28.1 µM | 29.2 µM
Nc1nc(Cl)nc2c1ncn2[C@H]1C[C@H](O)[C@@H](CO)O1 [S1199] | 55.1 µM | 49.9 µM
O=C1[C@H](CC[C@H](O)c2ccc(F)cc2)[C@@H](c2ccc(O)cc2)N1c1ccc(F)cc1 [S1655] | 3.33 µM | 3.62 µM
N#Cc1ccc(C(c2ccc(C#N)cc2)n2cncn2)cc1 [S1235] | 12.5 µM | 12.4 µM
CN(C)CCOc1ccc(/C(=C(/CCCl)c2ccccc2)c2ccccc2)cc1 [S1776] | 47.6 µM | 46.9 µM
CN(C)c1nc(N(C)C)nc(N(C)C)n1 [S1278] | 2.56 µM | 2.43 µM
C[C@]1(c2nc3c(C(N)=O)cccc3[nH]2)CCCN1 [S1004] | 77 µM | 44.1 µM
O=C1CCC(N2C(=O)c3ccccc3C2=O)C(=O)N1 (stereo unspecified) [S1193] | 29.9 µM | 28.2 µM
O=C(c1ccc(OCCN2CCCCC2)cc1)c1c(-c2ccc(O)cc2)sc2cc(O)ccc12 [S1227] | 8.3 µM | 8.74 µM
Cc1ccc(-c2cc(C(F)(F)F)nn2-c2ccc(S(N)(=O)=O)cc2)cc1 [S1261] | 25.2 µM | 24.3 µM
O=C(O)CCCc1ccc(N(CCCl)CCCl)cc1 [S4288] | 21.7 µM | 19.3 µM
